Data on 53 molecules can be found in US10577373B2, “TYK2 inhibitors and uses thereof” (Nimbus Lakshmi, Inc., priority 2017, dated 2020).

What is called IC50 is the midpoint of a concentration-inhibition curve.

One experiment concerns IL-12 induced STAT4 phophorylation mediated by Tyk2/JAK2 (heterodimeric complex). Kind of experiment: IL-12 Induced pSTAT4 in Human PBMC. Format: cell-based. The following applies: 1.7 ng/mL IL-12. From the text: The IL-12 Induced pSTAT4 assay evaluates the inhibition of IL-12 induced STAT4 phophorylation mediated by Tyk2/JAK2 (heterodimeric complex).
On to `CNc1cc(Nc2cccn([C@H]3CCCN(CCF)C3)c2=O)nc2c(C(=O)N[C@@H]3C[C@@H]3F)cnn12` [I-900], for which the IC50 is below 0.1 µM. As for `CNc1cc(Nc2cccn([C@H]3CCC[C@H](OC)C3)c2=O)nc2c(C(=O)N[C@@H]3CC[C@H]3OC)cnn12` [I-1374], the IC50 was below 0.1 µM.

Regarding `CNc1cc(Nc2cccn(-c3ccccn3)c2=O)nc2c(C(=O)N[C@@H]3C[C@H]3OC)cnn12` [I-1286], the IC50 is below 0.1 µM.

In turn, `CNc1cc(-c2cn(CCCO)c3ncccc23)nc2c(C(=O)N[C@H]3CC[C@@H]3OC)cnn12` [I-1388] registered an IC50 below 0.1 µM. The same measure, in the same setting: to `CNc1cc(-c2cn(C3CCOCC3)c3ncc(F)cc23)nc2c(C(=O)N[C@H]3CC[C@@H]3O)cnn12` [I-1314] belongs below 0.1 µM.

A further experiment has as its system GM-CSF induced STAT5 phosphorylation mediated by the JAK2/JAK2 homdimeric complex. Kind of experiment: GM-CSF Induced pSTAT5 in Human PBMC. Particulars: Homo sapiens, PBMC, 20 min, read-out: PBMC_GMCSF_pSTAT5 IC50, human PBMC; GM-CSF 5 ng/mL for 20 minutes; pSTAT5.
Text: Human PBMC are isolated from buffy coat and are stored frozen for assays as needed.
Consider `CNc1cc(Nc2cccn3ccnc23)nc2c(C(=O)N[C@H]3CC[C@@H]3OC)cnn12` [I-1052], for which the IC50 is above 50 µM. Still for that read-out and setting: as for `CNc1cc(Nc2cccn([C@H]3CCC[C@H]3O)c2=O)nc2c(C(=O)NC3CC3)cnn12` [I-963], the figure is above 50 µM; as for `CNc1cc(Nc2cccn([C@@H]3CCC[C@@H](OC)C3)c2=O)nc2c(C(=O)N[C@H]3CC[C@@H]3OC)cnn12` [I-1099], above 50 µM; as for `CNc1cc(Nc2cccn([C@@H]3CC[C@H]3O)c2=O)nc2c(C(=O)N[C@H]3CC[C@@H]3OC)cnn12` [I-1093], above 50 µM.

With `CNc1cc(Nc2cccn([C@@H]3CC[C@H]3OC)c2=O)nc2c(C(=O)N[C@@H]3C[C@@H]3F)cnn12` [I-1022], the IC50 is above 12.5 µM. On the same count and under the same terms, as for `CNc1cc(-c2cn(C(C)C)c3ncc(F)cc23)nc2c(C(=O)N[C@H]3CC[C@@H]3OC)cnn12` [I-1053, 5-(5-fluoro-1-isopropyl-1H-pyrrolo[2,3-b]pyridin-3-yl)-N-((1S,2S)-2-methoxycyclobutyl)-7-(methylamino)pyrazolo[1,5-a]pyrimidine-3-carboxamide], the figure is above 12.5 µM; as for `CNc1cc(Nc2cccn([C@@H]3CC[C@H]3O)c2=O)nc2c(C(=O)N[C@@H]3C[C@@H]3F)cnn12` [I-999], above 50 µM.

Turning to `CNc1cc(Nc2cccn(-c3ccccc3F)c2=O)nc2c(C(=O)N[C@H]3CC[C@@H]3O)cnn12` [I-1038], the IC50 is above 50 µM. As for `CNc1cc(Nc2cccn(-c3ccccc3F)c2=O)nc2c(C(=O)N[C@H]3CC[C@H]3O)cnn12` [I-1035], the IC50 was above 2.5 µM. On the same count and under the same terms, to `CNc1cc(Nc2cccn([C@H]3CCCC[C@H]3O)c2=O)nc2c(C(=O)N[C@@H]3CC[C@H]3OC)cnn12` [I-1057] belongs above 50 µM; to `CNc1cc(Nc2cccn([C@H]3CCC[C@H](O)C3)c2=O)nc2c(C(=O)N[C@H]3CC[C@@H]3OC)cnn12` [I-1063], above 50 µM; to `CNc1cc(Nc2cccn([C@H]3CCCC[C@H]3OC)c2=O)nc2c(C(=O)N[C@H]3CC[C@@H]3OC)cnn12` [I-1097], above 50 µM. Still for that read-out and setting: as for `CNc1cc(Nc2cccc3ocnc23)nc2c(C(=O)NC3CCC3OC)cnn12` (centres unmarked) [I-1051, 5-(benzo[d]oxazol-4-ylamino)-N-(2-methoxycyclobutyl)-7-(methylamino) pyrazolo[1,5-a]pyrimidine-3-carboxamide], the figure is above 50 µM; as for `CNc1cc(Nc2cccn(-c3cccc(F)c3)c2=O)nc2c(C(=O)N[C@H]3CC[C@H]3O)cnn12` [I-1004], above 12.5 µM; as for `CNc1cc(Nc2cc(Cl)cn(-c3cnn(C)c3F)c2=O)nc2c(C(=O)NC3CC3)cnn12` [I-955], above 12.5 µM. The same measure, in the same setting: to `CNc1cc(Nc2cccn([C@H]3CCC[C@@H](OC)C3)c2=O)nc2c(C(=O)N[C@@H]3CC[C@H]3O)cnn12` [I-993] belongs above 50 µM; to `CNc1cc(Nc2cccn(-c3cnn(C)c3F)c2=O)nc2c(C(=O)N[C@H]3CC[C@@H]3OC)cnn12` [I-1066], above 50 µM; to `CNc1cc(Nc2cccn([C@H]3CCCC[C@H]3O)c2=O)nc2c(C(=O)NC3CC3)cnn12` [I-878], above 50 µM. With `CNc1cc(Nc2cccn([C@@H]3CCCN(CCF)C3)c2=O)nc2c(C(=O)N[C@@H]3CC[C@H]3OC)cnn12` [I-1095], the IC50 was above 50 µM. The same measure, in the same setting: as for `CNc1cc(Nc2cccn([C@H]3CC[C@](C)(OC)CC3)c2=O)nc2c(C(=O)N[C@H]3CC[C@@H]3OC)cnn12` [I-1105], the figure is above 50 µM. With `CNc1cc(Nc2cccn([C@H]3[C@@H]4COC[C@@H]43)c2=O)nc2c(C(=O)N[C@H]3CC[C@@H]3OC)cnn12` [I-1088], the IC50 is above 50 µM. On the same count and under the same terms, as for `CNc1cc(Nc2cccn([C@H]3CCC[C@H]3O)c2=O)nc2c(C(=O)N[C@@H]3C[C@@H]3F)cnn12` [I-965], the figure is above 50 µM. Same read-out and setting: to `CNc1cc(Nc2cccn([C@H]3CCC[C@H](OC)C3)c2=O)nc2c(C(=O)N[C@H]3CC[C@@H]3OC)cnn12` [I-1098] belongs above 50 µM; to `CNc1cc(Nc2cccn([C@H]3CCC[C@H](OC)C3)c2=O)nc2c(C(=O)NC3CC3)cnn12` [I-1025], above 50 µM; to `CNc1cc(-c2cn(C(C)C)c3ncc(F)cc23)nc2c(C(=O)N[C@H]3CC[C@H]3O)cnn12` [I-1013, 5-(5-fluoro-1-isopropyl-1-pyrrolo[2,3-b]pyridin-3-yl)-N-(2-hydroxycyclobutyl)-7-(methylamino)pyrazolo[1,5-a]pyrimidine-3-carboxamide], above 12.5 µM. The same measure, in the same setting: to `CNc1cc(Nc2cccn3cnnc23)nc2c(C(=O)N[C@H]3CC[C@@H]3OC)cnn12` [I-1102] belongs above 2.5 µM; to `CNc1cc(Nc2cccn([C@H]3CCC[C@@H](OC)C3)c2=O)nc2c(C(=O)N[C@H]3CC[C@@H]3OC)cnn12` [I-996], above 50 µM; to `CNc1cc(Nc2cccn(-c3cnco3)c2=O)nc2c(C(=O)N[C@H]3CC[C@H]3O)cnn12` [I-1017], above 12.5 µM. Regarding `CNc1cc(Nc2cccn([C@@H]3CCC[C@@H](O)C3)c2=O)nc2c(C(=O)N[C@@H]3C[C@@H]3F)cnn12` [I-1029], the IC50 is above 2.5 µM. The same measure, in the same setting: to `CNc1cc(Nc2cccn([C@H]3CCCN(CCF)C3)c2=O)nc2c(C(=O)N[C@@H]3CC[C@H]3OC)cnn12` [I-1059] belongs above 50 µM; to `CNc1cc(-c2cn(C3CC3)c3ncccc23)nc2c(C(=O)N[C@H]3CC[C@@H]3OC)cnn12` (stereo in doubt) [I-1067, 5-(1-cyclopropyl-1H-pyrrolo[2,3-b]pyridin-3-yl)-N-(2-methoxycyclobutyl)-7-(methylamino)pyrazolo[1,5-a]pyrimidine-3-carboxamide], above 12.5 µM. Same read-out and setting: as for `CNc1cc(Nc2cccn([C@@H]3CCN(CCF)C3)c2=O)nc2c(C(=O)NC3CCC3OC)cnn12` (stereo partly drawn) [I-1096, 5-((1-((R)—1-(2-fluoroethyl)pyrrolidin-3-yl)-2-oxo-1,2-dihydropyridin-3-yl)amino)-N-(2-methoxycyclobutyl)-7-(methylamino)pyrazolo[1,5-a]pyrimidine-3-carboxamide], the figure is above 50 µM. On the same count and under the same terms, to `CNc1cc(Nc2cccn([C@H]3CC[C@@H]3O)c2=O)nc2c(C(=O)N[C@H]3CC[C@@H]3OC)cnn12` [I-1094] belongs above 50 µM; to `[2H]C([2H])([2H])Oc1ncccc1Nc1cc(NC)n2ncc(C(=O)NC3CC4(COC4)C3)c2n1` [I-417, 5-((2-(methoxy-d3)pyridin-3-yl)amino)-7-(methylamino)-N-(2-oxaspiro[3.3]heptan-6-yl)pyrazolo[1,5-a]pyrimidine-3-carboxamide], above 50 µM; to `CNc1cc(Nc2cccn([C@H]3CCC[C@H]3O)c2=O)nc2c(C(=O)N[C@H]3CC[C@@H]3OC)cnn12` [I-1101], above 50 µM. Regarding `CNc1cc(-c2cn(C3CCOCC3)c3ncccc23)nc2c(C(=O)NC3CCC3O)cnn12` (centres unmarked) [I-1048, N-(2-hydroxycyclobutyl)-7-(methylamino)-5-(1-(tetrahydro-2H-pyran-4-yl)-1H-pyrrolo[2,3-b]pyridin-3-yl)pyrazolo[1,5-a]pyrimidine-3-carboxamide], the IC50 is above 2.5 µM. The same measure, in the same setting: as for `CNc1cc(Nc2cccn([C@H]3CCC[C@H](OC)C3)c2=O)nc2c(C(=O)N[C@@H]3C[C@@H]3F)cnn12` [I-1042], the figure is above 2.5 µM. Turning to `CNc1cc(Nc2cccc(N3CCCC3=O)n2)nc2c(C(=O)N[C@H]3CC[C@H]3O)cnn12` [I-969], the IC50 is above 50 µM.

As for `CNc1cc(Nc2cccn([C@@H]3CCC[C@@H](OC)C3)c2=O)nc2c(C(=O)NC3CC3)cnn12` [I-957], the IC50 is above 50 µM. The same measure, in the same setting: as for `CNc1cc(Nc2cccn([C@H]3CCC[C@H](OC)C3)c2=O)nc2c(C(=O)NCC3(CO)CC3)cnn12` [I-1010], the figure is above 50 µM; as for `CNc1cc(Nc2cccn([C@H]3CCN(CCF)C3)c2=O)nc2c(C(=O)N[C@H]3CC[C@@H]3OC)cnn12` [I-1050, 5-((1-((S)-1-(2-fluoroethyl)pyrrolidin-3-yl)-2-oxo-1,2-dihydropyridin-3-yl)amino)-N-((1 S,2S)-2-methoxycyclobutyl)-7-(methylamino)pyrazolo[1,5-a]pyrimidine-3-carboxamide], above 50 µM; as for `CNc1cc(Nc2cccn(-c3ncc(C)s3)c2=O)nc2c(C(=O)N[C@@H]3CC[C@H]3O)cnn12` [I-1070], above 12.5 µM.

For the molecule `CNc1cc(Nc2cccn(-c3ccccn3)c2=O)nc2c(C(=O)N[C@H]3CC[C@@H]3O)cnn12` [I-971], the IC50 was above 50 µM. The same measure, in the same setting: as for `CNc1cc(Nc2cccn([C@H]3CCC[C@H](OC)C3)c2=O)nc2c(C(=O)NCC(C)(C)CO)cnn12` [I-958], the figure is above 50 µM.

The same experiment, now with this note: read-out: PBMC_GMCSF_pSTAT5 IC50; human PBMC; GM-CSF 5 ng/mL for 20 minutes; pSTAT5.
As for `CNc1cc(Nc2cccn([C@H]3CC[C@](C)(OC)CC3)c2=O)nc2c(C(=O)N[C@@H]3CC[C@H]3O)cnn12` [I-962], the IC50 was above 50 µM. The same measure, in the same setting: as for `CNc1cc(Nc2cccn(-c3ncc(C)s3)c2=O)nc2c(C(=O)N[C@@H]3CC[C@@H]3O)cnn12` [I-1073], the figure is above 50 µM; as for `CNc1cc(Nc2cccn([C@@H]3CCC[C@H](OC)C3)c2=O)nc2c(C(=O)N[C@@H]3CC[C@H]3OC)cnn12` [I-1082], above 50 µM. Still for that read-out and setting: to `CNc1cc(Nc2cccn([C@H]3CC[C@](C)(OC)CC3)c2=O)nc2c(C(=O)N[C@@H]3CC[C@H]3O)cnn12` [I-1107] belongs above 2.5 µM.
